Experiment [1] concerns the target T1, DNA polymerase theta (Homo sapiens, UniProt O75417).
Experiment [2] concerns the target T1, DNA polymerase theta. Nature of the experiment: Inhibition of DNA polymerase theta mediated TMEJ repair activity in human HEK293T cells transfected with TMEJ reporter incubated for 24 hrs by Nano-glo luciferase assay. The experiment is classed as cell-based.
The test system of a further experiment is DLD-1. Kind of experiment: Antiproliferative activity against BRCA2 deficient human DLD-1 cells assessed as inhibition of cell growth incubated for 7 days by Cell-titer glo luminescence assay. The experiment is classed as functional, cell-based. As to conditions: DLD-1, 168 h.
Another experiment concerns the target T2, Cytochrome P450 1A2 (Homo sapiens, UniProt P05177).
T2 sequence (P05177 whole entry): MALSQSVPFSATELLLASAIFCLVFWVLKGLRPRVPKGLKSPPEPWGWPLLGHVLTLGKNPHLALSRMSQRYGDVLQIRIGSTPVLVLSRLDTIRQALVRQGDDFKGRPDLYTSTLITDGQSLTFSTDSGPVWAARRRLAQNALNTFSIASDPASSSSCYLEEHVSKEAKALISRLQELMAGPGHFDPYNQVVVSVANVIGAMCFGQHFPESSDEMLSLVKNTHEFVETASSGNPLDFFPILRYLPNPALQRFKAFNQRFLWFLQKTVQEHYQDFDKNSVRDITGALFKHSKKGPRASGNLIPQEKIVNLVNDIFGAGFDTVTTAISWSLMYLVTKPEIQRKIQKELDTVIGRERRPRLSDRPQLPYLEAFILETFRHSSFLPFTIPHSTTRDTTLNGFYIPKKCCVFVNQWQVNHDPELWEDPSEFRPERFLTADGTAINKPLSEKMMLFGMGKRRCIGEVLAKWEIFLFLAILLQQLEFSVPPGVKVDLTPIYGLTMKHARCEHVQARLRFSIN
Kind of experiment: Inhibition of CYP1A2 in human liver microsomes using phenacetin as substrate incubated for 10 mins in presence of NADPH by LC-MS/MS analysis. The experiment is classed as ADME, Microsome. In general terms: Liver microsomes are a subcellular fraction often used to study metabolism.

The target of a further experiment is Cytochrome P450 2C9 (Homo sapiens, UniProt P11712). Kind of experiment: Inhibition of CYP2C9 in human liver microsomes using diclofenac as substrate incubated for 10 mins in presence of NADPH by LC-MS/MS analysis. The experiment is classed as ADME, Microsome.
The target of another experiment is Cytochrome P450 2C19 (Homo sapiens, UniProt P33261). Kind of experiment: Inhibition of CYP2C19 in human liver microsomes using S-mephenytoin as substrate incubated for 10 mins in presence of NADPH by LC-MS/MS analysis. The experiment is classed as ADME, Microsome.
In another experiment the target is Cytochrome P450 2D6 (Homo sapiens, UniProt P10635). Kind of experiment: Inhibition of CYP2D6 in human liver microsomes using dextromethorphan as substrate incubated for 10 mins in presence of NADPH by LC-MS/MS analysis. The experiment is classed as ADME, Microsome.
Another experiment has as its target Cytochrome P450 3A4 (Homo sapiens, UniProt P08684). Kind of experiment: Inhibition of CYP3A4 in human liver microsomes using midazolam as substrate incubated for 10 mins in presence of NADPH by LC-MS/MS analysis. The experiment is classed as ADME, Microsome.

SMILES strings stand for the structures. pIC50: −log10 of the molar value.

Our source for the IC50 values is ChEMBL document CHEMBL5550104, “Discovery of 3-hydroxymethyl-azetidine derivatives as potent polymerase theta inhibitors” (Bioorg Med Chem, 2024).

One may read the pIC50 as the negative decadic logarithm of the IC50, by convention in mol/L.

T1 sequence (O75417 whole entry): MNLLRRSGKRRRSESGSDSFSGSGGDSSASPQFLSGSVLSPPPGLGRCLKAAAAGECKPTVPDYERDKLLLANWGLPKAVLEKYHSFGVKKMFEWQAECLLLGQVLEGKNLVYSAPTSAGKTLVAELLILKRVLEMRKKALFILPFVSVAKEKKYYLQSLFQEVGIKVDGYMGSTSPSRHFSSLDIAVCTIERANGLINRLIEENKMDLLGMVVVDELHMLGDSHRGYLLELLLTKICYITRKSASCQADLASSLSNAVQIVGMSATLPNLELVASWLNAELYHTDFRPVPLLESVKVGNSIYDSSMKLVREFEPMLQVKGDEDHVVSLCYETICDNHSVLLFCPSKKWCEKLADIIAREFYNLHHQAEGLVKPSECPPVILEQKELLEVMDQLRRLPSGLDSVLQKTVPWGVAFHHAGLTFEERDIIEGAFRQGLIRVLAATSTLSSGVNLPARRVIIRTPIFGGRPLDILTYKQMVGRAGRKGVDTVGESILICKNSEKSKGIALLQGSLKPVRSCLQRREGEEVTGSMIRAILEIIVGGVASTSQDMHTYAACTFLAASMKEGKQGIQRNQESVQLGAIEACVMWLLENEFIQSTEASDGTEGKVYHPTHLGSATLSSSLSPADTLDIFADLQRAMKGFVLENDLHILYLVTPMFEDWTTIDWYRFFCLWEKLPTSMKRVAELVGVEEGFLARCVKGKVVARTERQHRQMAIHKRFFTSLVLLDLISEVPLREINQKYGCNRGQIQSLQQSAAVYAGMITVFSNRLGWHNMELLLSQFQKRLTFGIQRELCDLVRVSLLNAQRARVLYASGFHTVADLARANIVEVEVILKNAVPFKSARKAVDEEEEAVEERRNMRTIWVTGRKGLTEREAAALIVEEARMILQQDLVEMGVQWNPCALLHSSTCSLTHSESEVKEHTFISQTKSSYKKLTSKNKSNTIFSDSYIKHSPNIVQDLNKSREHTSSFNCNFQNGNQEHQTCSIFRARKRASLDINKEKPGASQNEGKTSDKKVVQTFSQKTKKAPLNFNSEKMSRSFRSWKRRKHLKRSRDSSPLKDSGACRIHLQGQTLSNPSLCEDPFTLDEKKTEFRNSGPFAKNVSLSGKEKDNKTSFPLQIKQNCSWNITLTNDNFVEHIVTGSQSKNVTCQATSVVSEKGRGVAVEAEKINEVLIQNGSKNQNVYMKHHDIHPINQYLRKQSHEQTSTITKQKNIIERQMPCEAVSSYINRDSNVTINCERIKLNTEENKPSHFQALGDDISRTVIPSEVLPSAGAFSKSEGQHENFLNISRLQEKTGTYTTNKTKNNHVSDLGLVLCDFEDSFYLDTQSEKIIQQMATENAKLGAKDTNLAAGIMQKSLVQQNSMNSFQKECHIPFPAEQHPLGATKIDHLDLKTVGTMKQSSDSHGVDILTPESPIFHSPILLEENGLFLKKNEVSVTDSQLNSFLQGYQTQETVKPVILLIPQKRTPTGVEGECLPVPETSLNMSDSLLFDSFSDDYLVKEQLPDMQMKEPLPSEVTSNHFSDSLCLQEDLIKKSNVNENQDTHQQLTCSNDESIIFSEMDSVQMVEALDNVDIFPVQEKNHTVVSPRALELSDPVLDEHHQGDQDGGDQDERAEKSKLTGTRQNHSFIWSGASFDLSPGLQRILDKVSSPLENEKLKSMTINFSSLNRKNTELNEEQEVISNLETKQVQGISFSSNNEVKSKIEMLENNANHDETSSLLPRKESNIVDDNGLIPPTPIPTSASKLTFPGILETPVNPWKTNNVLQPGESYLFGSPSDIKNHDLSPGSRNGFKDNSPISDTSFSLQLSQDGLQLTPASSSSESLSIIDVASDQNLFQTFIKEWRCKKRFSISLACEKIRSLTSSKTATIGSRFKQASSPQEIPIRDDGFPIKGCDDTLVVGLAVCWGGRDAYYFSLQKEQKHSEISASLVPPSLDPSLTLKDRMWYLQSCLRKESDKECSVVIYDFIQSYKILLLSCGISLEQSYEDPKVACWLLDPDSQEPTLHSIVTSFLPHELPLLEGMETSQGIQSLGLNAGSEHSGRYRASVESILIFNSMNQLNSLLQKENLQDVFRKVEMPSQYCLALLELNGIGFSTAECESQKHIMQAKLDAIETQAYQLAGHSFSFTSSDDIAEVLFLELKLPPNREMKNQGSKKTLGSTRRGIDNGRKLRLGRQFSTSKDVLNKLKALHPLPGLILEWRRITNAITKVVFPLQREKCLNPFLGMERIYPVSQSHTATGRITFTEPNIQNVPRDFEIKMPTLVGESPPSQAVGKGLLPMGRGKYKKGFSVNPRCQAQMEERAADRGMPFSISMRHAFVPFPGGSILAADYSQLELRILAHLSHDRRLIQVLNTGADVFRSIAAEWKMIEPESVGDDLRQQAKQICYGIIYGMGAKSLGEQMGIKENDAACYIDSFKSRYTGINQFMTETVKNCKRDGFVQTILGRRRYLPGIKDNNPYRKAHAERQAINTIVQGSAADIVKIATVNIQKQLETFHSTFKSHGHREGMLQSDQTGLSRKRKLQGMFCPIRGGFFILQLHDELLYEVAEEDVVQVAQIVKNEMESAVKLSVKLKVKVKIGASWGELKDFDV
Sequence of Cytochrome P450 2D6 (P10635 whole entry): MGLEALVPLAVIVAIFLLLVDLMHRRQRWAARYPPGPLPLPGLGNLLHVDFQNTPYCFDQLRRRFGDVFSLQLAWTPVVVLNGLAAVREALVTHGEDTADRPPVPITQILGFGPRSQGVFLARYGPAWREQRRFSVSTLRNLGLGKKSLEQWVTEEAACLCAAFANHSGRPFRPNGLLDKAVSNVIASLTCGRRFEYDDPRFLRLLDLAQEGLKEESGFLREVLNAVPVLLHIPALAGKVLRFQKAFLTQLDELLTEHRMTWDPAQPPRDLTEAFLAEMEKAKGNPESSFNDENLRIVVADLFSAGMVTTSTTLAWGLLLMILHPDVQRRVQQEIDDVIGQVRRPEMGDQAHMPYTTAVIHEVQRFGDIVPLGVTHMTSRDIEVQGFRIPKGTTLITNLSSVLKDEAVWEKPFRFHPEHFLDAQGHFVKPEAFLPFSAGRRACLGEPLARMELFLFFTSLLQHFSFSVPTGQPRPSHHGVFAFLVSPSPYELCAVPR
Sequence of Cytochrome P450 3A4 (P08684 whole entry): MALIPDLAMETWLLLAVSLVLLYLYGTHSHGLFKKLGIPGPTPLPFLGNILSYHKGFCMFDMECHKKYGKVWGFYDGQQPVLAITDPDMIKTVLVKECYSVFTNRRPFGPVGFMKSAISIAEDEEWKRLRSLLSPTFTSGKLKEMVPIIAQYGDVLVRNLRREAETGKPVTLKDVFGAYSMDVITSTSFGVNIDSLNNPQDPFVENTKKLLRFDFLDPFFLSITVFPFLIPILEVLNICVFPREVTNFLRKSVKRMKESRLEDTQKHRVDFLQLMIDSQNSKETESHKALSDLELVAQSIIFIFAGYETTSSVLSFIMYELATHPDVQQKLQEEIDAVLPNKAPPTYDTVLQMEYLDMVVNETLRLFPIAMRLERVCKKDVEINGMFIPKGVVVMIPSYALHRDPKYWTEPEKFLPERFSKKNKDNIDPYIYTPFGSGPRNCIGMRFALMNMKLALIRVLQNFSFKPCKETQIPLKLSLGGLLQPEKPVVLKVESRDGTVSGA
Sequence of Cytochrome P450 2C9 (P11712 whole entry): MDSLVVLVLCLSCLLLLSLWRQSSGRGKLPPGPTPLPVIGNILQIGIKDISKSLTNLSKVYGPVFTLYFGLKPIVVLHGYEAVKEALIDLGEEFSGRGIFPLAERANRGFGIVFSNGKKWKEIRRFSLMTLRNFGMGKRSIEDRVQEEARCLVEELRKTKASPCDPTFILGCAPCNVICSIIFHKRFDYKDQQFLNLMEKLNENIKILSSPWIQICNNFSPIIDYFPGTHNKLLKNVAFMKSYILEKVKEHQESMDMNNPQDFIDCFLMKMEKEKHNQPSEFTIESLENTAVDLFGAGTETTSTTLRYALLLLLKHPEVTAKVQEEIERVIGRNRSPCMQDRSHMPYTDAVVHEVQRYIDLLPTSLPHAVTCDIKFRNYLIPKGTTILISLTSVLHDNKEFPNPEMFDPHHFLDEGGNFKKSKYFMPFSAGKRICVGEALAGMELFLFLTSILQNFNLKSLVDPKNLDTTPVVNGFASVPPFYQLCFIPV
Sequence of Cytochrome P450 2C19 (P33261 whole entry): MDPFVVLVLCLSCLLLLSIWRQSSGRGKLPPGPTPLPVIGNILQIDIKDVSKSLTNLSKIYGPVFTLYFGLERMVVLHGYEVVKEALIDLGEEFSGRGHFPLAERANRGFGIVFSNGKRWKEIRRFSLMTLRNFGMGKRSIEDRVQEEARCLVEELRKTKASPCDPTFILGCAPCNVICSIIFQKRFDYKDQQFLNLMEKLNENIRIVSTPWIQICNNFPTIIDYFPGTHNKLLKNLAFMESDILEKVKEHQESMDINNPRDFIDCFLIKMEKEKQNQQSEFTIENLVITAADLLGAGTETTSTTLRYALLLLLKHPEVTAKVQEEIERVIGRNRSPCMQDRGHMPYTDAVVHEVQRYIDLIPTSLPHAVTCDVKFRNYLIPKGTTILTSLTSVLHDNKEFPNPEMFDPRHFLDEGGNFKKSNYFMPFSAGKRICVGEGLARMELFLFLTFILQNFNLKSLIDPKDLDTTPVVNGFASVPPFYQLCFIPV

At DNA polymerase theta [1], `Cc1cc(C(F)(F)F)cc(N2CC[C@H]2C(=O)N(C)c2ccc(F)c(Cl)c2)n1` showed a pIC50 of 6.66.
At DNA polymerase theta [1], `Cc1cc(C(F)(F)F)cc(N2C(=O)C[C@H]2C(=O)N(C)c2ccc(F)c(Cl)c2)n1` showed a pIC50 of 7.38.
Regarding `Cc1cc(C(F)(F)F)c(C#N)c(N2CC[C@@H](O)[C@H]2C(=O)N(C)c2ccc(F)c(Cl)c2)n1`, the values for the pIC50 against DNA polymerase theta [2], with DLD-1 and against DNA polymerase theta [1] were 6.80, 5.26 and 8.10, respectively.
For `Cc1cc(C(F)(F)F)c(C#N)c(N2C[C@@H](CCl)[C@H]2C(=O)N(C)c2ccc(F)c(Cl)c2)n1`, the pIC50 on DNA polymerase theta [1] was 6.03.
The compound `Cc1cc(C(F)(F)F)c(C#N)c(N2C(=O)C[C@H]2C(=O)N(C)c2ccc(F)c(Cl)c2)n1` gave a pIC50 against DNA polymerase theta [1] of 6.07.
With `Cc1cc(C(F)(F)F)cc(N2CCOC[C@H]2C(=O)N(C)c2ccc(F)c(Cl)c2)n1`, the pIC50 against DNA polymerase theta [1] was 5.41.
As for `[2H]C([2H])([2H])N(C(=O)[C@@H]1[C@H](CO)CN1c1nc(C)cc(C(F)(F)F)c1C#N)c1ccc(F)c(Cl)c1`, the pIC50 at Cytochrome P450 1A2 is below 4.30; on Cytochrome P450 2C9, 5.51; at Cytochrome P450 2C19, 6.11; on Cytochrome P450 2D6, 4.76; at Cytochrome P450 3A4 it was 4.84.
In the case of `Cc1cc(C(F)(F)F)c(C#N)c(N2CC[C@H]2C(=O)N(C)c2ccc(F)c(Cl)c2)n1`, at DNA polymerase theta [1], the pIC50 is 6.98.
